Format in all cases: cell-based
In assay [1] the test system is HCT116, SW480 and MDA-MB-468 cells. As to the kind of experiment: Cell counting during cysteine starvation, starvation-resistant cell lines. The protocol: (§1) The base medium formulation contained 0.2 mM L-histidine, 0.4 mM L-isoleucine, 0.4 mM L-leucine, 0.4 mM L-lysine, 0.2 mM L-phenylalanine, 0.4 mM L-threonine, 0.08 mM L-tryptophan, 0.4 mM L-valine, 0.2 mM L-arginine, 2 mM L-glutamine, 0.2 mM L-tyrosine, 0.4 mM L-alanine, 0.3 mM L-proline, 0.15 mM L-glutamic acid, 0.1 mM L-aspartic acid, 0.2 mM L-asparagine, and 0.4 mM glycine.
(§2) DAPI-stained cell nuclei were detected via microscopy.
(§3) AMD1 inhibitor sardomozide/SAM486A, GPX4 inhibitor RSL3, and CSE inhibitor beta-cyano-L-alanine were used.
(§4) For experiments using spermine oxidase (SMOX) and polyamine oxidase (PAOX) inhibitors or MTOB, cells were pre-treated with stated concentrations for 16 hours in complete medium. After pre-treatment, cells were washed in PBS, and treatment was continued in complete or cysteine-free medium for stated times. After treatment was finished, cells were fixed and stained as described above. For experiments using MTA, polyamines, GPX4 and CSE inhibitors, treatment started at the same time as cysteine starvation. For experiments involving hypoxic conditions, cells were seeded in normoxic conditions and allowed to adhere for 24 hours before control and cysteine starvation medium was added and cells were immediately transferred either to a humidified cell culture incubator set to 37° C. in 20% O2 (normoxia), or a hypoxia chamber set to 37° C. in 1% O2 (hypoxia) for the stated times. Cells were fixed immediately and stained as described above.

In assay [2] the test system is MDA-MB-231, MIAPaCa-2 and PANC-1 cells. As to the kind of experiment: Cell counting during cysteine starvation, starvation-sensitive cell lines. The following applies: ferrostatin 1 μM. The protocol: as §1, §2, §3, §4
For assay [3], the system named is MTAP-deleted HCT116 cells. As to the kind of experiment: Cell counting during cysteine starvation, MTAP-deleted HCT116. Particulars: ferrostatin. An excerpt:
[NT] Successfully transfected cells were selected with puromycin and grown as clonal colonies. Clones were selected based initially on MTA efflux measured by liquid chromatography mass spectrometry (LC-MS). Clones with greatest MTA efflux were selected, and methylthioadenosine phosphorylase knockout (MTAP-KO) was then confirmed by western blot. MTAP-KO HCT116 cells were transfected with pCMV-Hygro-MTAP and pCMV-Hygro-negative control vector, selected using hygromycin B, and grown as clonal colonies. Clones were selected based initially on MTA efflux measured by LC-MS. Clones with low MTA efflux were selected, then MTAP re-expression was confirmed by western blot. […] DAPI-stained cell nuclei were detected via microscopy. […] For experiments using spermine oxidase (SMOX) and polyamine oxidase (PAOX) inhibitors or MTOB, cells were pre-treated with stated concentrations for 16 hours in complete medium. After pre-treatment, cells were washed in PBS, and treatment was continued in complete or cysteine-free medium for stated times. After treatment was finished, cells were fixed and stained as described above. For experiments using MTA, polyamines, GPX4 and CSE inhibitors, treatment started at the same time as cysteine starvation. For experiments involving hypoxic conditions, cells were seeded in normoxic conditions and allowed to adhere for 24 hours before control and cysteine starvation medium was added and cells were immediately transferred either to a humidified cell culture incubator set to 37° C. in 20% O2 (normoxia), or a hypoxia chamber set to 37° C. in 1% O2 (hypoxia) for the stated times. Cells were fixed immediately and stained as described above.

Each structure is given as a SMILES string.

`N#CC[C@H](N)C(=O)O` [beta-cyano-L-alanine]: in assay [1] (HCT116, CSE inhibitor 0.5 mM or 1 mM, 48 h), the “response to CSE inhibition during cysteine starvation” value is “only a modest response”. Besides, the “sensitivity to cysteine starvation” value in assay [1] (SW480 and MDA-MB-468, CSE inhibitor 0.5 mM or 1 mM, 48 h) is recorded as “increased the sensitivity to cysteine starvation”.
With `CCOC(=O)c1ccc(NC2CCCCC2)c(N)c1` [ferrostatin, ferrostatin-1], in assay [2], the “proliferation during cysteine starvation” value was “did not restore proliferation”. The “cell death in response to cysteine starvation” value in assay [2] (sensitive cells, 24 h and 72 h) was “prevented cell death”. Also, the “impact on response to cysteine starvation” value in assay [1] (more resistant cells, ferrostatin 1 μM, 24 h and 72 h) was “little impact”. In assay [3], the “rescue of increased sensitivity to cysteine starvation” value was “rescued”.

Source of the values: patent US12109184B2, “Personalized methods of treating cancer” (CANCER RESEARCH TECHNOLOGY LIMITED, priority 2020, dated 2024).
